The source of these data is ChEMBL document CHEMBL1201862, “PubChem BioAssay data set” (2004).

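These data come from cells grown in 96-well plates and exposed to compound for 48 hours at five concentrations. GI50 = concentration required for 50% inhibition of growth.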 The source made the active and inactive calls. Cut-off read from the data, not from the text of the source: active = GI50 up to about 1.1 µM and inactive = higher.

Assay in all cases: growth of human tumour cells (NCI), 48 h
Assay [1] relates to PC-3.
Assay [2] has as its system OVCAR-8.
Assay [3] deals with U-251.
Assay [4] relates to HCT-116.
Assay [5] deals with OVCAR-5.
Assay [6] deals with IGROV-1.
The test system of assay [7] is COLO 205.
Assay [8] concerns HCC 2998.
In assay [9] the test system is RPMI-8226.
Assay [10] has as its system Malme-3M.
In assay [11] the test system is DU-145.
Assay [12] relates to NCI/ADR-RES.
For assay [13], the system named is MCF7.
In assay [14] the test system is HT-29.
The subject of assay [15] is T47D.
Assay [16] deals with CCRF-CEM.
For assay [17], the system named is HL-60.
The subject of assay [18] is SF-539.
Assay [19] relates to HOP-62.
Assay [20] concerns MOLT-4.

Take `CCOC(=O)[C@@]12NN=N[C@@H]1[C@H]1CO[C@H](c3ccccc3)N1C2=O`: the GI50 in [1] was 10.1 µM (inactive); in [2], 5.68 µM (inactive); in [3], 4.54 µM (inactive); in assay [4] it was 15 µM (inactive); in [5], 14.2 µM (inactive); in [6] it was 5.24 µM (inactive). Also, the GI50 in assay [7] was 10.2 µM (inactive); in [8], 12.9 µM (inactive); in assay [9] it was 3.24 µM (inactive); in assay [10] it was 13.3 µM (inactive); in [11], 13.8 µM (inactive); in [12] it was 22.1 µM (inactive). The GI50 is 6.34 µM (inactive) in [13]; 13.5 µM (inactive) in [14]; 5.22 µM (inactive) in assay [15]; 7.1 µM (inactive) in assay [16]; 17.3 µM (inactive) in assay [17]; 11.2 µM (inactive) in [18]. In addition, the GI50 was 14.5 µM (inactive) in assay [19] and 5.33 µM (inactive) in assay [20].
For `N#CC(C#N)/N=C/c1ccncc1`, the GI50 in [1], in assay [2], in [3], in assay [4], in [5] and in assay [6] was > 100 µM (inactive) each time. The GI50 in [7], in [8], in [9], in [10], in [11] and in assay [12] was > 100 µM (inactive) in each case. The GI50 in assay [13] is > 100 µM (inactive); in assay [14], > 100 µM (inactive); in assay [15], > 100 µM (inactive); in [16], 28.7 µM (inactive); in assay [17], 39 µM (inactive); in assay [18] it was > 100 µM (inactive). Further, the GI50 in [19] and in assay [20] was > 100 µM (inactive) throughout.
Regarding `C[N+](C)(C)CC1CCCCCCCCCCC1=O` (configuration not stated), the GI50 in [1], in assay [2], in assay [3], in assay [4], in assay [5] and in [6] was > 100 µM (inactive) in each case. The GI50 in assay [7], in assay [8], in assay [9], in assay [10], in [11] and in assay [12] was > 100 µM (inactive) in each case. Also, the GI50 in assay [13], in [14], in [15], in [16], in assay [17] and in [18] was > 100 µM (inactive) throughout. The GI50 in [19] was 39.4 µM (inactive); in [20], > 100 µM (inactive).
For `CCOC(=O)C(NC(=O)CC(C)C)(Nc1ccc(C(F)(F)F)cc1)C(F)(F)F` (configuration not stated), the GI50 was 20 µM (inactive) in assay [1]; 27.1 µM (inactive) in assay [2]; 28 µM (inactive) in assay [3]; 17.2 µM (inactive) in [4]; > 100 µM (inactive) in assay [5]; 22.2 µM (inactive) in [6]. Besides, the GI50 in assay [8] was 32.8 µM (inactive); in assay [9], 16.7 µM (inactive); in [10], 96.4 µM (inactive); in assay [11] it was 89.9 µM (inactive); in [12] it was 22.6 µM (inactive); in assay [13], > 100 µM (inactive). Also, the GI50 was 21 µM (inactive) in assay [14]; 18.4 µM (inactive) in [15]; 35.6 µM (inactive) in assay [16]; 21 µM (inactive) in assay [17]; > 100 µM (inactive) in assay [18]; 36.1 µM (inactive) in [19]. The GI50 in [20] was 23 µM (inactive).
For the molecule `O=C1/C(=C/c2ccc(O)cc2)CCCC1CN1CCCCC1` (configuration not stated), the GI50 in assay [1] was 5.38 µM (inactive); in [2], 5.92 µM (inactive); in assay [3], 7.91 µM (inactive); in assay [4] it was 1.79 µM (inactive); in assay [5] it was 16.3 µM (inactive); in assay [6], 1.97 µM (inactive). The GI50 in assay [7] is 2.16 µM (inactive); in assay [8], 4.76 µM (inactive); in [9] it was 1.32 µM (inactive); in assay [10], 1.88 µM (inactive); in assay [11], 7.24 µM (inactive); in assay [12], 8.2 µM (inactive). For the same molecule, the GI50 in [13] was 1.69 µM (inactive); in assay [14], 2.62 µM (inactive); in assay [15], 2.32 µM (inactive); in assay [16], 2.57 µM (inactive); in assay [17] it was 0.483 µM (active); in [18], 3.94 µM (inactive). The GI50 in [19] is 15.7 µM (inactive); in assay [20], 2.2 µM (inactive).
On to `CC1(C)C(/C=N\O)=[N+]([O-])C(C)(C)N1O`, for which the GI50 in [1], in assay [2], in [3], in assay [4], in assay [5] and in [6] was > 100 µM (inactive) throughout. Besides, the GI50 in [7], in assay [8], in assay [9], in assay [10], in assay [11] and in [12] was > 100 µM (inactive) each time. Also, the GI50 in [13] was > 100 µM (inactive); in assay [14], 54.3 µM (inactive); in assay [15], > 100 µM (inactive); in assay [16], 89.7 µM (inactive); in assay [17], 31.6 µM (inactive); in assay [18] it was > 100 µM (inactive). Moreover, the GI50 in assay [19] was > 100 µM (inactive).
For `COc1ccc(C(OCC2OC(n3cnc4c(=O)n(Cc5ccccc5[N+](=O)[O-])nnc43)C(O)C2O)(c2ccccc2)c2ccc(OC)cc2)cc1` (configuration not stated), the GI50 in [1] was 3.85 µM (inactive); in assay [2] it was 8.11 µM (inactive); in assay [3] it was 11 µM (inactive); in [4], 5.6 µM (inactive); in assay [5], 27.8 µM (inactive); in assay [6], 10.9 µM (inactive). Also, the GI50 in assay [7] was 6.84 µM (inactive); in [8], 6.97 µM (inactive); in [9] it was 3.36 µM (inactive); in [10] it was 14.7 µM (inactive); in [11], 19.6 µM (inactive); in assay [12], 19.1 µM (inactive). Besides, the GI50 in [13] was 4.28 µM (inactive); in [14], 4.31 µM (inactive); in assay [15], 11.5 µM (inactive); in assay [16], 3.76 µM (inactive); in assay [17], 2.18 µM (inactive); in assay [18], 11.8 µM (inactive). The results for the GI50 in assay [19] and in [20] were 21.6 µM (inactive) and 2.31 µM (inactive), respectively.
Consider `O=C1C=C(c2ccccc2)O/C1=C/C(=O)c1ccc(Cl)cc1`, for which the GI50 is 14.2 µM (inactive) in assay [1]; 23.1 µM (inactive) in assay [2]; 15.7 µM (inactive) in assay [3]; 16.4 µM (inactive) in assay [4]; 17.6 µM (inactive) in assay [5]; 18.3 µM (inactive) in assay [6]. Besides, the GI50 in assay [7] is 16.1 µM (inactive); in assay [8], 15.4 µM (inactive); in assay [9], 3.33 µM (inactive); in [10], 17.2 µM (inactive); in assay [11], 37.3 µM (inactive); in assay [12], 22.1 µM (inactive). The GI50 in assay [13] was 16.5 µM (inactive); in assay [14], 18.2 µM (inactive); in assay [15], > 10 µM (inactive); in assay [16], 3.35 µM (inactive); in assay [17], 1.66 µM (inactive); in [18], 17.8 µM (inactive). In addition, the GI50 in [19] was 30.5 µM (inactive); in assay [20], 2.85 µM (inactive).
On to `N#Cc1c(N2CCC(O)C2)c2ccccc2n2c1nc1ccccc12` (configuration not stated), for which the GI50 in assay [1] was > 100 µM (inactive); in assay [2], 45.7 µM (inactive); in [4], > 100 µM (inactive); in [5], > 100 µM (inactive); in assay [6], 69.2 µM (inactive); in assay [7] it was > 100 µM (inactive). The GI50 was > 100 µM (inactive) in assay [8]; > 100 µM (inactive) in assay [9]; 40.4 µM (inactive) in [10]; > 100 µM (inactive) in assay [11]; 65.3 µM (inactive) in [12]; > 100 µM (inactive) in [13]. Moreover, the GI50 in assay [14] is > 100 µM (inactive); in assay [15], 64.3 µM (inactive); in assay [16] it was > 100 µM (inactive); in assay [17] it was > 100 µM (inactive); in assay [18], 54.8 µM (inactive); in assay [19], 18.6 µM (inactive). Besides, the GI50 in [20] was > 100 µM (inactive).
Consider `CCN(CC)CCNc1ccc2ncn3c4c(OC)ccc(O)c4c(=O)c1c23`, for which the GI50 was 10.9 µM (inactive) in [1]; 6.93 µM (inactive) in [2]; 12.6 µM (inactive) in [3]; 1.16 µM (inactive) in assay [4]; 42.4 µM (inactive) in [5]; 5.56 µM (inactive) in assay [6]. The GI50 in [7] was 5.87 µM (inactive); in assay [8], 5.25 µM (inactive); in assay [9] it was 4.21 µM (inactive); in [10] it was 19.4 µM (inactive); in [11], 19.3 µM (inactive); in assay [12], 2.54 µM (inactive). Moreover, the GI50 was 3.52 µM (inactive) in assay [13]; 7.4 µM (inactive) in assay [14]; > 100 µM (inactive) in assay [15]; 4.12 µM (inactive) in assay [16]; 30.8 µM (inactive) in [17]; 6.98 µM (inactive) in assay [18]. The figures for the GI50 in assay [19] and in assay [20] were 15.4 µM (inactive) and 0.625 µM (active), respectively.
